ChEMBL document CHEMBL4715878 (J Med Chem, 2020)
Active and inactive are the calls of the source. The calls are words filed in the database; no cut-off is given here.

Assays:
[1] = tested on: BT-474; assay: Induction of apoptosis in human BT474 cells assessed as increase in late apoptotic cells at 0.5 to 5 uM incubated for 72 hrs by Annexin V-FITC/PI staining based flow cytometry analysis relative to control; type: functional; conditions: dose 0.5-5 µM
[2] = tested on: Panel NCI-60 (60 carcinoma cell lines); assay: Antiproliferative activity against human NCI60 cells assessed as lethality at 10 uM after 48 hrs by SRB assay relative to control; type: functional
[3] = tested on: MDA-MB-468; assay: Antiproliferative activity against human MDA-MB-468 cells assessed as cell growth inhibition after 48 hrs by SRB assay; type: functional
[4] = tested on: MCF7; assay: Induction of apoptosis in human MCF7 cells assessed as accumulation in late apoptotic cells at 5 uM incubated for 72 hrs by Annexin V-FITC/PI staining based flow cytometry analysis; type: functional, cell-based
[5] = tested on: MDA-MB-231; assay: Induction of apoptosis in human MDA-MB-231 cells assessed as accumulation in early apoptotic cells at 5 uM incubated for 72 hrs by Annexin V-FITC/PI staining based flow cytometry analysis; type: functional, cell-based
[6] = tested on: BT-474; assay: Induction of apoptosis in human BT474 cells assessed as increase in early apoptotic cells at 0.5 to 5 uM incubated for 72 hrs by Annexin V-FITC/PI staining based flow cytometry analysis relative to control; type: functional; conditions: dose 0.5-5 µM
[7] = Antiproliferative activity against human BC assessed as lethality at 10 uM after 48 hrs by SRB assay relative to control; type: functional
[8] = tested on: T47D; assay: Antiproliferative activity against human T47D cells assessed as cell growth inhibition after 48 hrs by SRB assay; type: functional; conditions: pooled result: one value given for 5 cell lines, strains, targets or settings
[9] = Antiproliferative activity against human BC assessed as cell growth inhibition at 10 uM after 48 hrs by SRB assay relative to control; type: functional; conditions: read-out: GI
[10] = tested on: MDA-MB-468; assay: Antiproliferative activity against human MDA-MB-468 cells assessed as cell growth inhibition at 10 uM after 48 hrs by SRB assay relative to control; type: functional; conditions: read-out: GI
[11] = target: T1, Receptor tyrosine-protein kinase erbB-2 (Homo sapiens, UniProt P04626); assay: Inhibition of wild-type HER2 (unknown origin) at 0.5 nM in presence of substrate incubated for 30 mins by ADP-Glo assay relative to control
T1 sequence (P04626 whole entry): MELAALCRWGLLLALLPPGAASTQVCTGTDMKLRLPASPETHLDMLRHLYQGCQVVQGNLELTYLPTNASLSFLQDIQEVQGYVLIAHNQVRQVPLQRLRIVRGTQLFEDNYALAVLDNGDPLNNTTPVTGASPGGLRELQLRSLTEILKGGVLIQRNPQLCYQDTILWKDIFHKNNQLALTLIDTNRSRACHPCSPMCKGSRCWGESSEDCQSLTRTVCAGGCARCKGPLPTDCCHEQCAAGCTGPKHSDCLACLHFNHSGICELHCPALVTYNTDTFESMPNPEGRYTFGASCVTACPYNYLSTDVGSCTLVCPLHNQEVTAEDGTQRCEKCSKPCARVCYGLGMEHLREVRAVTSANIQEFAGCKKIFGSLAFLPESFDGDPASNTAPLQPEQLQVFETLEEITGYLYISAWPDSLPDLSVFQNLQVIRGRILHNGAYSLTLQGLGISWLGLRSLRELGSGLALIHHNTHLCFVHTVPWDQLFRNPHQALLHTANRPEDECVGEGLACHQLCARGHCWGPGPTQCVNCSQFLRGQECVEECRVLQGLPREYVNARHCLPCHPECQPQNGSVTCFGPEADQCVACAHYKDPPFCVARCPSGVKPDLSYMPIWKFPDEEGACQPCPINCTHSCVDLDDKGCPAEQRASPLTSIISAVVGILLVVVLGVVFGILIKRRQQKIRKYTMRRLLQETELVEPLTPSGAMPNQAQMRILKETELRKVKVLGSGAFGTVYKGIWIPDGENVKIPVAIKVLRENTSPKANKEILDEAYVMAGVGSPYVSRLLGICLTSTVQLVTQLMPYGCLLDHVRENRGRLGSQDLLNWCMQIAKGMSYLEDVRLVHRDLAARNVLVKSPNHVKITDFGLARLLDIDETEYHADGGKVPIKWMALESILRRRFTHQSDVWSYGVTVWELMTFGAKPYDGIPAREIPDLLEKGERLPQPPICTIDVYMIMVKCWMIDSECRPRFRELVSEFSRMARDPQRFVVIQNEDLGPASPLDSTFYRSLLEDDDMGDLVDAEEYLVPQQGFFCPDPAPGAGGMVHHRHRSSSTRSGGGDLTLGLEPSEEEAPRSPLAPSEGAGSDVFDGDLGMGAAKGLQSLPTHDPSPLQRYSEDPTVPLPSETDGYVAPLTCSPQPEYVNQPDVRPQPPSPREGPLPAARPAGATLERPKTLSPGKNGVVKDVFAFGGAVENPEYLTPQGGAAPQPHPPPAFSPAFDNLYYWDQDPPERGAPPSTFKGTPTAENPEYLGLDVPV

[12] = tested on: BT-474; assay: Antiproliferative activity against human BT474 cells assessed as reduction in cell viability incubated for 72 hrs by WST8 assay; type: functional, cell-based; conditions: BT-474, 72 h
[13] = tested on: AU565; assay: Down regulation of HER2 expression in human AU565 cells at 0.5 IC50 incubated for 72 hrs by Western blot analysis; type: functional, cell-based
[14] = tested on: MDA-MB-231; assay: Induction of apoptosis in human MDA-MB-231 cells assessed as accumulation in late apoptotic cells at 5 uM incubated for 72 hrs by Annexin V-FITC/PI staining based flow cytometry analysis; type: functional, cell-based
[15] = tested on: AU565; assay: Antiproliferative activity against human AU565 cells assessed as reduction in cell viability incubated for 72 hrs by WST8 assay; type: functional, cell-based; conditions: AU565, 72 h
[16] = tested on: MCF7; assay: Induction of apoptosis in human MCF7 cells assessed as accumulation in early apoptotic cells at 5 uM incubated for 72 hrs by Annexin V-FITC/PI staining based flow cytometry analysis; type: functional, cell-based
[17] = target: T1, Receptor tyrosine-protein kinase erbB-2; assay: Inhibition of HER2 (unknown origin) in presence of substrate incubated for 30 mins by ADP-Glo assay
[18] = tested on: MDA-MB-231; assay: Antiproliferative activity against human MDA-MB-231 cells assessed as reduction in cell viability incubated for 72 hrs by WST8 assay; type: functional, cell-based; conditions: MDA-MB-231, 72 h
[19] = tested on: BT-474; assay: Induction of apoptosis in human BT474 cells assessed as increase in early apoptotic cells incubated for 72 hrs by Annexin V-FITC/PI staining based flow cytometry analysis; type: functional, cell-based; conditions: dose 0.1-5 µM
[20] = tested on: MDA-MB-468; assay: Antiproliferative activity against human MDA-MB-468 cells assessed as lethality at 10 uM after 48 hrs by SRB assay relative to control; type: functional
[21] = Antiproliferative activity against human MDA-MB-231 cells assessed as lethality at 10 uM after 48 hrs by SRB assay relative to control; type: functional, MDA-MB-23
[22] = tested on: MCF7; assay: Antiproliferative activity against human MCF7 cells assessed as reduction in cell viability incubated for 72 hrs by WST8 assay; type: functional, cell-based; conditions: MCF7, 72 h
[23] = tested on: Panel NCI-60 (60 carcinoma cell lines); assay: Antiproliferative activity against human NCI60 cells assessed as mean cell growth at 10 uM after 48 hrs by SRB assay relative to control; type: functional
[24] = tested on: MCF7; assay: Antiproliferative activity against human MCF7 cells assessed as lethality at 10 uM after 48 hrs by SRB assay relative to control; type: functional
[25] = tested on: MCF7; assay: Potency index, ratio of lapatinib IC50 to test compound IC50 for antiproliferative activity against human MCF7 cells; type: functional
[26] = tested on: BT-474; assay: Induction of apoptosis in human BT474 cells assessed as increase in early apoptotic cells at 0.2 uM incubated for 72 hrs by Annexin V-FITC/PI staining based flow cytometry analysis relative to control; type: functional

Row | SMILES | fold change (FC) [1] | Activity [4] | Activity [5] | fold change (FC) [6] | inhibition [11] [%] | IC50 [12] [nM] | Activity [14] | IC50 [15] [nM] | Activity [16] | IC50 [17] [nM] | IC50 [18] [nM] | Activity [19] | IC50 [22] [nM] | also measured
1 | Cc1cccc(Oc2ccc(Nc3ncnc4ccc(NC(=O)CN5CCN(C)CC5)cc34)cc2Cl)c1 | <=3 | inactive | inactive | <=6 | 3 | 81 | inactive | 135 | inactive | 5.4 | 4500 | Dose-dependent effect | 2650 | Activity [2]: 1.3%; GI50 [3]: 400 nM; Activity [7]: <=78.7%; GI50 [8]: 1210 nM; inhibition of growth at 10 µM [9]: ≤ 78.7%; inhibition of growth at 10 µM [10]: 18.8%; Activity [13]: inactive; Activity [20]: 18%; Activity [21]: 18%; Activity [23]: 11.85%; Activity [24]: 18%
2 | CN1CCN(CC(=O)Nc2ccc3ncnc(Nc4ccc(OCc5cccc(F)c5)c(Cl)c4)c3c2)CC1 | 2 | inactive | inactive | 10 | 3 | 133 | inactive | 134 | inactive | 6.1 | 1360 | Dose-dependent effect | 1780 | Ratio IC50 [25]: <=20; fold change (FC) [26]: 7
